{
  "source": "paper PMC7187627",
  "about": "(Antimicrobial Agents and Chemotherapy, 2019)",
  "experiment": "Fecal (stool) pharmacokinetics, multiple-ascending-dose phase 1 study",
  "format": "in vivo, human",
  "conditions": "for Cstool,ss (concentration in stool) / fe,stool (fe,feces,ss, fraction of dose excreted unchanged in feces over 24 h): day 10, median (minimum, maximum); for fe,stool (fe,feces,ss, fraction of dose excreted unchanged in feces over 24 h): % in Table S4",
  "protocol": "PK method development, validation, and sample testing for plasma, feces, and urine were performed at KCAS, LLC (Shawnee, KS). Plasma, urine, and fecal concentrations of CRS3123 were determined by means of validated, sensitive, and specific high-performance liquid chromatography/tandem mass spectrometric (HPLC-MS/MS) assays. The lower limits of quantification of CRS3123 in plasma, feces, and urine were 10.0 ng/ml, 60.0 ng/g, and 100.0 ng/ml, respectively. The validated urine PK assay measured total free CSR3123. Since the majority of urinary CRS3123 was excreted as glucuronide conjugates ([32]), an enzymatic cleavage step using glucuronidase was added to the process to convert the glucuronide conjugates to free CRS3123 for the urine analysis.\nA selective, accurate, and reproducible analytical method using LC-MS/MS for the quantitation of CRS3123 in human fecal homogenate was linear over a range of 10.0 to 2000 ng/ml (fecal homogenate) or 60.0 to 12,000 ng/g (fecal material). Since 11 fecal samples collected on day 10 exceeded the upper limit, this method was amended by validating it for an extended range of 50.0 to 3,000 μg/ml (fecal homogenate) or […] (fecal material).\n(iii) Fecal PK. Twenty-four-hour fecal collection was initiated for all subjects following dose 1 and dose 19 of study drug for measurement of CRS3123 concentrations in feces. A listing of individual PK fecal sample collection start and stop dates/times, fecal weight excreted for each planned collection, CRS3123 concentration in each fecal collection, and amount of CRS3123 excreted in each fecal collection was provided for each fecal collection for each treatment. The bioanalytical method was amended to allow for reanalysis of samples originally outside the linear range.\nThe following parameters were calculated from the fecal data: amount of unchanged drug excreted in feces (in nanograms) following doses 1 and 2 (Ae,feces) or doses 19 and 20 (Ae,feces,ss) calculated as fecal concentration × fecal weight (in the case of multiple fecal samples, Ae,feces and Ae,feces,ss were determined as the sum of the amount calculated in each fecal sample collected during the 24-h collection period), and fraction of dose excreted unchanged in feces (fe,feces,ss) over a 24-h interval after multiple dosing (expressed as a percentage), calculated as Ae,feces,ss divided by dose 19 plus dose 20.\nDue to the 12-h dosing interval utilized in this study, fe,feces,ss was calculated only after multiple dosing on day 10, when CRS3123 would be expected to be at or near steady state. […] A subject listing of individual fecal PK parameters for each treatment was provided for day 1 and for day 10.",
  "note": "“And” between values parts separate entries of the source, which are not always exact repeats. Identical values can stand only once.",
  "data": [
    {"smiles": "O=c1cc(NCCCN[C@@H]2CCOc3c(Br)cc(Br)cc32)[nH]c2ccsc12", "note": "[CRS3123]", "values": [
      {"measurement": "Cstool,ss (concentration in stool)", "setting": "200 mg Q12h oral", "value": "2,115 μg/g and 2,115 (966, 4,430) μg/g"},
      {"measurement": "fe,stool (fe,feces,ss, fraction of dose excreted unchanged in feces over 24 h)", "setting": "200 mg Q12h oral", "value": "24.9% and 24.9 (1.9, 68.8) %"},
      {"measurement": "Cstool,ss (concentration in stool)", "setting": "400 mg Q12h oral", "value": "5,390 μg/g and 5,390 (2,920, 8,700) μg/g"},
      {"measurement": "fe,stool (fe,feces,ss, fraction of dose excreted unchanged in feces over 24 h)", "setting": "400 mg Q12h oral", "value": 52.0, "unit": "%"},
      {"measurement": "Cstool,ss (concentration in stool)", "setting": "600 mg Q12h oral", "value": "8,280 μg/g and 8,280 (2,200, 14,000) μg/g"},
      {"measurement": "fe,stool (fe,feces,ss, fraction of dose excreted unchanged in feces over 24 h)", "setting": "600 mg Q12h oral", "value": "43.1% and 43.1 (11.0, 125.8) %"},
      {"measurement": "concentrations in feces", "setting": "all three doses tested", "value": "above 1,000 μg/g"},
      {"measurement": "fecal concentrations relative to MIC90", "setting": "human, in vivo", "value": "substantially above the MIC90 value"}
    ]}
  ]
}
